Data as given in patent EP4745135A1 (Gluetacs Therapeutics (Shanghai) Co., Ltd., priority 2023, dated 2025).

Columns and labels:
[1] = tested on: Human T lymphocytic leukemia cell line: Jurkat; test: Tumor cell proliferation inhibition (CellTiter-Meiluncell luminescent cell viability assay); details: 96 h; for inhibition at 0.01 µM: read-out: Inhibition Rate at 10 nM (%); for inhibition at 0.5 µM: read-out: Inhibition Rate at 500 nM (%)
CK1α = target: T1, CK1α (Homo sapiens, UniProt P48729+Q96SW2); test: Western blot, degradation of substrate protein in hPBMCs; format: cell-based
T1 construct: effects of the compounds of the present disclosure on the expression of target proteins in cells; endogenous in cells; host or cells: human PBMCs (Milecell Biotechnologies)

IKZF2 = target: T2, IKZF2 (Homo sapiens, UniProt Q96SW2+Q9UKS7); test: as above; format: cell-based
T2 construct: effects of the compounds of the present disclosure on the expression of target proteins in cells; endogenous in cells; host or cells: human PBMCs (Milecell Biotechnologies)

IKZF1 = target: T3, IKZF1 (Homo sapiens, UniProt Q13422+Q96SW2); test: as above; format: cell-based
T3 construct: effects of the compounds of the present disclosure on the expression of target proteins in cells; endogenous in cells; host or cells: human PBMCs (Milecell Biotechnologies)

IKZF3 = target: T4, IKZF3 (Homo sapiens, UniProt Q96SW2+Q9UKT9); test: as above; format: cell-based
T4 construct: effects of the compounds of the present disclosure on the expression of target proteins in cells; endogenous in cells; host or cells: human PBMCs (Milecell Biotechnologies)

WEE1 = target: T5, WEE1 (Homo sapiens, UniProt P30291+Q96SW2); test: as above; format: cell-based
T5 construct: effects of the compounds of the present disclosure on the expression of target proteins in cells; endogenous in cells; host or cells: human PBMCs (Milecell Biotechnologies)

[2] = tested on: Human breast cancer cell (MCF-7); test: Tumor cell proliferation inhibition (CellTiter-Meiluncell luminescent cell viability assay); details: MCF7, 96 h, read-out: Inhibition Rate at 500 nM (%)
[3] = tested on: Human acute myeloid leukemia cell line: Kasumi-1; test: as above; details: Kasumi 1, 96 h; for inhibition at 0.01 µM: read-out: Inhibition Rate at 10 nM (%); for inhibition at 0.5 µM: read-out: Inhibition Rate at 500 nM (%)
[4] = tested on: Human acute T lymphocytic leukemia cell (Molt4); test: as above; details: MOLT-4, 96 h; for inhibition at 0.01 µM: read-out: Inhibition Rate at 10 nM (%); for inhibition at 0.5 µM: read-out: Inhibition Rate at 500 nM (%)
[5] = tested on: Human myeloid monocytic leukemia cell (MV-4-11); test: as above; details: MV4-11, 96 h; for inhibition at 0.01 µM: read-out: Inhibition Rate at 10 nM (%); for inhibition at 0.5 µM: read-out: Inhibition Rate at 500 nM (%)
Protocol: The tumor cells used herein were cultured in a cell culture medium listed in table 2 at 37°C in an incubator with 5% CO2. Prior to experimentation, all cell lines used were correctly identified by STR profiling, and tested negative for mycoplasma contamination using a mycoplasma detection kit through routine screenings.
The IC50 values of the compounds of the present disclosure (including the compounds in Table 1 and Examples) were determined using the CellTiter-Meiluncell Luminescent Cell Viability Assay Kit from Dalian Meilun Biotech Co., Ltd. The detailed procedure is as follows: Tumor cells were seeded in 96-well cell culture plates at the densities specified in Table 3. On the following day, the test compounds of the present disclosure were subjected to serial dilution. The dilution can be performed according to one of the following two methods: • (1) The first dilution method: The test compounds of the present disclosure (including the compounds in Table 1 and Examples) were subjected to 5-fold serial dilutions starting from a highest concentration of 2000 µM, resulting in a total of 9 concentrations from high to low (2000, 400, 80, 16, 3.2, 0.64, 0.128, 0.0256, 0.00512 µM). Subsequently, 0.5 µL of the test compound dilution was transferred into the 96-well plate containing the cells, with each well containing 100 µL of cell culture medium. […] Into the 96-well plate, the diluted test compounds and corresponding detection reagents were added, resulting in final test compound concentrations of 500 nM and 10 nM, respectively. The experimental procedure is described below using the diluted 2 µM test compound as an example.
0.5 µL of the aforementioned diluted compound of the present disclosure (including the compounds in Table 1 and Examples) was added to the seeded cells in 100 µL of medium, yielding a final test compound concentration of 10 nM. After the cells were treated with the compounds of the present disclosure for a specified period, the cell viability assay reagent was added to the culture medium according to the kit's instructions to determine cell viability. […] All controls were treated using the same procedure as the compounds of the present disclosure. The growth inhibition curves for the compounds of the present disclosure were plotted using Prism GraphPad software, and the IC50 values were calculated therefrom.

[6] = tested on: Human multiple myeloma peripheral blood B lymphocyte cell (RPMI-8226); test: as above; details: RPMI-8226, 96 h; for inhibition at 0.01 µM: read-out: Inhibition Rate at 10 nM (%); for inhibition at 0.5 µM: read-out: Inhibition Rate at 500 nM (%)
[7] = tested on: Human T cell acute lymphoblastic leukemia cell (CCRF-CEM); test: as above; details: 96 h; for inhibition at 0.01 µM: read-out: Inhibition Rate at 10 nM (%); for inhibition at 0.5 µM: read-out: Inhibition Rate at 500 nM (%)
[8] = tested on: Human multiple myeloma cell (MM.1S); test: as above; details: for inhibition at 0.01 µM / inhibition at 0.5 µM: Homo sapiens, MM1.S, 96 h; for inhibition at 0.01 µM: read-out: Inhibition Rate at 10 nM (%); for inhibition at 0.5 µM: read-out: Inhibition Rate at 500 nM (%)
[9] = target: T6, human Cereblon WT GST-tagged protein (Homo sapiens, UniProt Q96SW2); test: CRBN-binding affinity, HTRF (CEREBLON BINDING kit); details: for inhibition at 0.5 µM: read-out: Inhibition Rate at 0.5 µM (%); for inhibition at 2 µM: read-out: Inhibition Rate at 2 µM (%)
T6 construct: purchased CISBIO 64BDCRBNPEH

GSPT1 = test: Western blot, degradation of substrate protein in hPBMCs; format: cell-based, Human
[10] = Western blot, 24 hours of compound treatment, compounds tested at 50 nM and 500 nM (concentration for the table not stated)
[11] = 24 hours treatment, compounds at 50 nM and 500 nM (concentration behind the class not stated)

T5 sequence (P30291 whole entry): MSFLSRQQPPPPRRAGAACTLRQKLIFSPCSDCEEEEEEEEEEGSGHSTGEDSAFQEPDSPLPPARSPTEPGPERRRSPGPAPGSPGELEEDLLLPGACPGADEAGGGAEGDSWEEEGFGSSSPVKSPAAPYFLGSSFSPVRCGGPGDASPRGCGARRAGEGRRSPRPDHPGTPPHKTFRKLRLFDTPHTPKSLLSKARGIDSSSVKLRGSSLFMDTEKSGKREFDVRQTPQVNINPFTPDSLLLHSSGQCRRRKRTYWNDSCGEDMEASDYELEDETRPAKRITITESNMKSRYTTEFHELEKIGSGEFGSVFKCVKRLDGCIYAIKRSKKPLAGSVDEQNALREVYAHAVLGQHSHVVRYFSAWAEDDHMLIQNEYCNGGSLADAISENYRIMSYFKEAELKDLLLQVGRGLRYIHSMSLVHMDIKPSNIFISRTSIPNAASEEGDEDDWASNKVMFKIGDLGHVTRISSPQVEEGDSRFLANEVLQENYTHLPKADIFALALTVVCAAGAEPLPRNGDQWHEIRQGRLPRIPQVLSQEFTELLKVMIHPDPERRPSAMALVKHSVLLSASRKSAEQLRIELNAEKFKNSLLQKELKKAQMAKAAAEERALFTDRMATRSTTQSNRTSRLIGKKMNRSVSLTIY
T5 sequence (Q96SW2 whole entry): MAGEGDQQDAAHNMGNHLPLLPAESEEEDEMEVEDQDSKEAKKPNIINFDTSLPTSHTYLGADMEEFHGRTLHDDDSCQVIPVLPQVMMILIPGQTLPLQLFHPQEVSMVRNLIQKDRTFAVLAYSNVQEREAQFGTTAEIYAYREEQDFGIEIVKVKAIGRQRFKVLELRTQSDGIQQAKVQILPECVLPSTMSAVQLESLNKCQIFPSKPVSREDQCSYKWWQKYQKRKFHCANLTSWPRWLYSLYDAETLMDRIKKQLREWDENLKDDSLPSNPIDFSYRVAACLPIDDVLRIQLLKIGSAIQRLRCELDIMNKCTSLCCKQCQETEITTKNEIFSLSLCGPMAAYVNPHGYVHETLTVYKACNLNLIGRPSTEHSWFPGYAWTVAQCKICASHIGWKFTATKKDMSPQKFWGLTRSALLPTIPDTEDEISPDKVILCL
T5 sequence (Q16531 whole entry partner): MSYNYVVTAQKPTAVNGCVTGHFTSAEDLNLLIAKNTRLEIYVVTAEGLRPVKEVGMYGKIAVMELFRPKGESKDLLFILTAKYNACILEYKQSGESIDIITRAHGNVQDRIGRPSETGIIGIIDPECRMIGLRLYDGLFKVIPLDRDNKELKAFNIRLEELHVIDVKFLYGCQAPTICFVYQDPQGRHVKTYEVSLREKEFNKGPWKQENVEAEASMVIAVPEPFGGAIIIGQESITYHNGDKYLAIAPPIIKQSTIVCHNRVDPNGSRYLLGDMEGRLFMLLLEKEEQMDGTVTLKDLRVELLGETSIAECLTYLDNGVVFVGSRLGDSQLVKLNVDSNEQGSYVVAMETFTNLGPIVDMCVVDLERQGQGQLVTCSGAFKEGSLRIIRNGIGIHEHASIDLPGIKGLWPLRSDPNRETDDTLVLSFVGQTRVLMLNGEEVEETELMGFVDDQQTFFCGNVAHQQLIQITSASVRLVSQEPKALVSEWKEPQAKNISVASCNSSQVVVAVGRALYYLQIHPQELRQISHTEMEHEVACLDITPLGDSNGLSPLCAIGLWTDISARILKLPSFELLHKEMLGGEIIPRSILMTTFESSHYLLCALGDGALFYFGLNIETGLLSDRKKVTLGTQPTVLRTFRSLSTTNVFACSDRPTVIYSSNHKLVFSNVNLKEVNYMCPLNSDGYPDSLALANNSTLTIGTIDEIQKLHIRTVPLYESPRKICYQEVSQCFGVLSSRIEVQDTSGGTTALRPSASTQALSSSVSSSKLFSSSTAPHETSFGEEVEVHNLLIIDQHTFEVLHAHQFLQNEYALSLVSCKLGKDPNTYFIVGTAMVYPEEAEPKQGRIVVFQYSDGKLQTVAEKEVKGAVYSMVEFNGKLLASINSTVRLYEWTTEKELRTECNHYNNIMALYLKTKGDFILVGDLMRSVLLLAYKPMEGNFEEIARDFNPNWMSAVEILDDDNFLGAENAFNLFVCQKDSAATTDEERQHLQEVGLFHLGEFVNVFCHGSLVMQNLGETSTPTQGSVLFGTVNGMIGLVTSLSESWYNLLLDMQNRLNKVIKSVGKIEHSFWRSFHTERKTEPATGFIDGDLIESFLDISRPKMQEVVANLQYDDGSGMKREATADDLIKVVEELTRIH
T1 sequence (P48729 whole entry): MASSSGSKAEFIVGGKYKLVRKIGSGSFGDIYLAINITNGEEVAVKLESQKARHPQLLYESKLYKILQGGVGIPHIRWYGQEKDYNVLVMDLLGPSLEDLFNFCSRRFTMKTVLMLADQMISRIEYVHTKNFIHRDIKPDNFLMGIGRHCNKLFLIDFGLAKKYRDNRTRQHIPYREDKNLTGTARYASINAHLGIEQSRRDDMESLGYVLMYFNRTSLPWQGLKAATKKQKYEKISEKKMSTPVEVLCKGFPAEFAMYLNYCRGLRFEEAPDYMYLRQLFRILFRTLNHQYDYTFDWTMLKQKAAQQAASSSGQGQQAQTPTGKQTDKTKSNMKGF
T1 sequence (Q96SW2 whole entry): as the sequence (Q96SW2 whole entry) above
T1 sequence (Q16531 whole entry partner): as the sequence (Q16531 whole entry partner) above
T2 sequence (Q9UKS7 whole entry): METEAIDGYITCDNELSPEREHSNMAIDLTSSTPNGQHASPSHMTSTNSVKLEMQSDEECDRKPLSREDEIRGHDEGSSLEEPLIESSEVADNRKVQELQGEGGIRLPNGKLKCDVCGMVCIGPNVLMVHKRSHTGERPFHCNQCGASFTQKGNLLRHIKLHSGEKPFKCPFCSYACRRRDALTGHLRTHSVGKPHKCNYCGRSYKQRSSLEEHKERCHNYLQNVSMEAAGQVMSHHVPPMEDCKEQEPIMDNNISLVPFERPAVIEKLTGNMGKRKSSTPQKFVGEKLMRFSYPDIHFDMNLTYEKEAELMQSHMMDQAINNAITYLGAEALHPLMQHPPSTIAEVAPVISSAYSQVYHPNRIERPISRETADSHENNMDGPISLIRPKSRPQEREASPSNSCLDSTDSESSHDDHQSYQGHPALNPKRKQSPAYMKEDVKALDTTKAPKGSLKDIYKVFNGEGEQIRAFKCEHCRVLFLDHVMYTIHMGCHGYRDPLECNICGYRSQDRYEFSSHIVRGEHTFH
T2 sequence (Q96SW2 whole entry): as the sequence (Q96SW2 whole entry) above
T2 sequence (Q16531 whole entry partner): as the sequence (Q16531 whole entry partner) above
T6 sequence (Q96SW2 whole entry): as the sequence (Q96SW2 whole entry) above
T4 sequence (Q9UKT9 whole entry): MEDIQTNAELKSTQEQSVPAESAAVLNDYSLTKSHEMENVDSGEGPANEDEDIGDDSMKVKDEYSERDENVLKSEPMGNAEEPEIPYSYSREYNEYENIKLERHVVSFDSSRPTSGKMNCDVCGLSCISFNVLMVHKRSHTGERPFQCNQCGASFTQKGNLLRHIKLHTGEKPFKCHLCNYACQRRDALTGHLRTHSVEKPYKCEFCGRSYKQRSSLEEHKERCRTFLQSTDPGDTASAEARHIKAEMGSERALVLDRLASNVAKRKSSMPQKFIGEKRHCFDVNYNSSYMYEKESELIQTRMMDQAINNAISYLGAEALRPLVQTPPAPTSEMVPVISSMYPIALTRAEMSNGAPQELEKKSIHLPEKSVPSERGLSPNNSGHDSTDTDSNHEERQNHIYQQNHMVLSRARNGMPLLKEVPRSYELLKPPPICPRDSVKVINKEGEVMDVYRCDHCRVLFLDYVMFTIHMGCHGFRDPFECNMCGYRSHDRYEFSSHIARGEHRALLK
T4 sequence (Q96SW2 whole entry): as the sequence (Q96SW2 whole entry) above
T4 sequence (Q16531 whole entry partner): as the sequence (Q16531 whole entry partner) above
T3 sequence (Q13422 whole entry): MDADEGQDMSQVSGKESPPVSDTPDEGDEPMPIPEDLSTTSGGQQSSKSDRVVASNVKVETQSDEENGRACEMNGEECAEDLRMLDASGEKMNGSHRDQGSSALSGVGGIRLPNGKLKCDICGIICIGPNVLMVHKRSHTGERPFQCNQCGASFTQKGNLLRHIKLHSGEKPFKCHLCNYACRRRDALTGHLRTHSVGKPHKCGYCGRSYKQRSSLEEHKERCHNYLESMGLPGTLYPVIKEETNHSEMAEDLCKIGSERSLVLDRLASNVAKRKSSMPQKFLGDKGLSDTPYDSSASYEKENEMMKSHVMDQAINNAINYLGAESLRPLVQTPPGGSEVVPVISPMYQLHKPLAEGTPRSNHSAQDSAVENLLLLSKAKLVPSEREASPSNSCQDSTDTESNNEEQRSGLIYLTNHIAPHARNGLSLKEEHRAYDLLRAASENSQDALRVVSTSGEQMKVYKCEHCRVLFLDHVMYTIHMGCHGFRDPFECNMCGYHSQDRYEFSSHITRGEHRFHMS
T3 sequence (Q96SW2 whole entry): as the sequence (Q96SW2 whole entry) above
T3 sequence (Q16531 whole entry partner): as the sequence (Q16531 whole entry partner) above

Row | SMILES | inhibition at 0.5 µM [9] [%] | inhibition at 2 µM [9] [%] | inhibition at 0.01 µM [1] [%] | inhibition at 0.5 µM [1] [%] | inhibition at 0.01 µM [3] [%] | inhibition at 0.5 µM [3] [%] | inhibition at 0.01 µM [4] [%] | inhibition at 0.5 µM [4] [%] | inhibition at 0.01 µM [5] [%] | inhibition at 0.5 µM [5] [%] | inhibition at 0.01 µM [6] [%] | inhibition at 0.5 µM [6] [%] | inhibition at 0.01 µM [7] [%] | inhibition at 0.5 µM [7] [%] | inhibition at 0.01 µM [8] [%] | inhibition at 0.5 µM [8] [%] | CK1α substrate protein remaining % (CK1α; [11]) | IKZF2 substrate protein remaining % (IKZF2; [11]) | IKZF 1 substrate protein remaining % (IKZF1; [11]) | IKZF3 substrate protein remaining % (IKZF3; [11]) | further results
1 | O=C1CCC(N2Cc3cc(CN4CCC(N(c5ccccc5)c5ccccn5)CC4)ccc3C2=S)C(=O)N1 (stereo not shown) [GT-07846, 3-(5-((4-(phenyl(pyridin-2-yl)amino)piperidin-1-yl)methyl)-1-thioxoisoindolin-2-yl)piperidine-2,6-dione] | 53 to 60 | 80 to 100 | 30 to 40 | 80 to 100 | 40 to 50 | 80 to 100 | 70 to 80 | 80 to 100 | 10 to 18 | 80 to 100 | 20 to 30 | 60 to 70 | 40 to 50 | 80 to 100 | 60 to 70 | 80 to 100 |  |  |  |  | CK1α substrate protein remaining % (CK1α; [10]): B (80%< substrate protein remaining %≤ 100%); IKZF2 substrate protein remaining % (IKZF2; [10]): A (0% ≤ substrate protein remaining % ≤ 80%); IKZF 1 substrate protein remaining % (IKZF1; [10]): A (0% ≤ substrate protein remaining % ≤ 80%); IKZF3 substrate protein remaining % (IKZF3; [10]): A (0% ≤ substrate protein remaining % ≤ 80%); Wee1 substrate protein remaining % (WEE1; [10]): A (0% ≤ substrate protein remaining % ≤ 80%); inhibition at 0.5 µM [2]: 40 to 50%; GSPT1 substrate protein remaining % (GSPT1; [10]): A (0% ≤ substrate protein remaining % ≤ 80%)
2 | O=C1CCC(N2Cc3cc(CN4CC=C(c5ccoc5)CC4)ccc3C2=S)C(=O)N1 (stereo not shown) [GT-08328, 3-(5-((4-(furan-3-yl)-3,6-dihydropyridin-1(2H)-yl)methyl)-1-thioxoisoindolin-2-yl)piperidine-2,6-dione] | 60 to 80 | 80 to 100 | 0 to 5 | 40 to 50 | 5 to 10 | 60 to 70 | 10 to 20 | 80 to 100 | 40 to 60 | 80 to 100 |  |  | 10 to 20 | 80 to 100 | 50 to 60 | 80 to 100 | A (0% ≤ substrate protein remaining % ≤ 80%) | B (80%< substrate protein remaining %≤ 100%) | B (80%< substrate protein remaining %≤ 100%) | B (80%< substrate protein remaining %≤ 100%) | Wee1 substrate protein remaining % (WEE1; [11]): A (0% ≤ substrate protein remaining % ≤ 80%); GSPT1 substrate protein remaining % (GSPT1; [11]): A (0% ≤ substrate protein remaining % ≤ 80%)
3 | O=C1CCC(N2Cc3cc(CN4CCC(c5cccc(F)c5F)CC4)ccc3C2=S)C(=O)N1 (stereo not shown) [GT-08331, 3-(5-((4-(2,3-difluorophenyl)piperidin-1-yl)methyl)-1-thioxoisoindolin-2-yl)piperidine-2,6-dione] | 40 to 53 | 80 to 100 | 5 to 10 | 50 to 60 | 5 to 10 | 70 to 80 | 10 to 20 | 80 to 100 |  |  | 10 to 20 | 40 to 50 | 5 to 10 | 80 to 100 | 10 to 20 | 80 to 100 | A (0% ≤ substrate protein remaining % ≤ 80%) | A (0% ≤ substrate protein remaining % ≤ 80%) | A (0% ≤ substrate protein remaining % ≤ 80%) | B (80%< substrate protein remaining %≤ 100%) | Wee1 substrate protein remaining % (WEE1; [11]): A (0% ≤ substrate protein remaining % ≤ 80%); GSPT1 substrate protein remaining % (GSPT1; [11]): A (0% ≤ substrate protein remaining % ≤ 80%)

Now from value to compound, other results behind:

Row | inhibition at 0.5 µM [9] [%] | inhibition at 2 µM [9] [%] | SMILES | inhibition at 0.01 µM [1] [%] | inhibition at 0.5 µM [1] [%] | inhibition at 0.01 µM [3] [%] | inhibition at 0.5 µM [3] [%] | inhibition at 0.01 µM [4] [%] | inhibition at 0.5 µM [4] [%] | inhibition at 0.01 µM [5] [%] | inhibition at 0.5 µM [5] [%] | inhibition at 0.01 µM [6] [%] | inhibition at 0.5 µM [6] [%] | inhibition at 0.01 µM [7] [%] | inhibition at 0.5 µM [7] [%] | inhibition at 0.01 µM [8] [%] | inhibition at 0.5 µM [8] [%] | CK1α substrate protein remaining % (CK1α; [11]) | IKZF2 substrate protein remaining % (IKZF2; [11]) | IKZF 1 substrate protein remaining % (IKZF1; [11]) | IKZF3 substrate protein remaining % (IKZF3; [11]) | further results
4 | 20 to 30 | 60 to 80 | O=C1CCC(N2Cc3cc(CN4CCN(Cc5ccccc5-c5ccc(Cl)cc5)CC4)ccc3C2=S)C(=O)N1 (stereo not shown) [GT-08166, 3-(5-((4-((4'-chloro-[1,1'-biphenyl]-2-yl)methyl)piperazin-1-yl)methyl)-1-thioxoisoindolin-2-yl)piperidine-2,6-dione] | 10 to 20 | 80 to 100 | 10 to 20 | 80 to 100 | 10 to 20 | 80 to 100 | 30 to 40 | 80 to 100 | 10 to 20 | 60 to 70 | 10 to 20 | 80 to 100 | 40 to 50 | 80 to 100 | B (80%< substrate protein remaining %≤ 100%) | A (0% ≤ substrate protein remaining % ≤ 80%) | B (80%< substrate protein remaining %≤ 100%) | A (0% ≤ substrate protein remaining % ≤ 80%) | Wee1 substrate protein remaining % (WEE1; [11]): A (0% ≤ substrate protein remaining % ≤ 80%); inhibition at 0.5 µM [2]: 60 to 70%; GSPT1 substrate protein remaining % (GSPT1; [11]): A (0% ≤ substrate protein remaining % ≤ 80%)
5 | 60 to 80 | 80 to 100 | Cc1cc(C2CCN(Cc3ccc4c(c3)CN(C3CCC(=O)NC3=O)C4=S)CC2)cs1 (stereo not shown) [GT-08325, 3-(5-((4-(5-methylthiophen-3-yl)piperidin-1-yl)methyl)-1-thioxoisoindolin-2-yl)piperidine-2,6-dione] | -5 to 0 | 70 to 80 | 0 to 5 | 80 to 100 | 10 to 20 | 80 to 100 | 60 to 80 | 100 to 110 | 20 to 30 | 60 to 70 | 10 to 20 | 80 to 100 | 30 to 40 | 80 to 100 | A (0% ≤ substrate protein remaining % ≤ 80%) | B (80%< substrate protein remaining %≤ 100%) | B (80%< substrate protein remaining %≤ 100%) | B (80%< substrate protein remaining %≤ 100%) | Wee1 substrate protein remaining % (WEE1; [11]): A (0% ≤ substrate protein remaining % ≤ 80%); GSPT1 substrate protein remaining % (GSPT1; [11]): A (0% ≤ substrate protein remaining % ≤ 80%)
6 | 40 to 53 | 80 to 100 | O=C1CCC(N2Cc3cc(CN4CCC(c5cccs5)CC4)ccc3C2=S)C(=O)N1 (stereo not shown) [GT-08329, 3-(5-((4-(thiophen-2-yl)piperidin-1-yl)methyl)-1-thioxoisoindolin-2-yl)piperidine-2,6-dione] | 10 to 20 | 70 to 80 | 5 to 10 | 80 to 100 | 10 to 20 | 80 to 100 | -5 to 0 | 80 to 100 | 10 to 20 | 70 to 80 | 10 to 20 | 80 to 100 | 10 to 20 |  | A (0% ≤ substrate protein remaining % ≤ 80%) | B (80%< substrate protein remaining %≤ 100%) | B (80%< substrate protein remaining %≤ 100%) | B (80%< substrate protein remaining %≤ 100%) | Wee1 substrate protein remaining % (WEE1; [11]): A (0% ≤ substrate protein remaining % ≤ 80%); Inhibition Rate at 500 nM (%) ([8]; MM.1S, 500 nM, 96 hours): la10; GSPT1 substrate protein remaining % (GSPT1; [11]): A (0% ≤ substrate protein remaining % ≤ 80%)
